What was measured:
[1] = system: FMAL-actin plus TMR-cC0-C2; assay: Selleck library HTS, 473 nm excitation (FLT of FMAL-actin with TMR-cC0-C2, FLT-FRET); format: binding, human; conditions: for 473-nm Δτ, Repeat 1 / 473-nm Δτ, Repeat 2: initial screen, 30 μM compound; for 473-nm z-score (based on avg Δτ): robust z-score, hit threshold ±4, 30 μM compound
Protocol: (§1) Fluorescence lifetime (FLT) measurements were acquired using a high-throughput FLT plate reader (Fluorescence Innovations, Inc) ([14], [27]), provided by Photonic Pharma LLC. […] The observed waveforms were analyzed as described previously ([15], [28]).
(§2) In total, 50 nl of each solution was dispensed in DMSO using an automated Echo 550 acoustic liquid dispenser (Labcyte). Compounds were formatted into the assay plates, at a final concentration of 30 μM, with the first two and second to last columns loaded with DMSO only (compound-free controls). In the final column, 30 μM of suramin was loaded as a positive control (tool compound). These assay plates were then heat-sealed using a PlateLoc Thermal Microplate Sealer (Agilent Technologies) and stored at −20 °C. Before screening, compound plates were equilibrated to room temperature (∼25 °C). […] Plates were incubated at room temperature for 60 min before recording the data with the fluorescence lifetime plate reader.
After fitting the waveforms with a single exponential decay to quantify donor FLT, the change in FLT (Δτ) was computed by performing a moving median subtraction in the order the plate was scanned with a window size of half a plate row […]. The reasons for this are twofold. Firstly, plate gradients are often observed due to the heating of the digitizer during acquisition.
To account for the necessity to correct for plate gradients in the computation of E, the median τDMSO prior to the application of the moving median correction was added to each well’s Δτ value to recover a rescaled value of τ.

TMR-cC0-C2 = assay: Selleck library HTS, 532 nm excitation (FLT of TMR-cC0-C2 in presence of FMAL-actin); format: binding, human; conditions: for 532-nm Δτ, Repeat 1 / 532-nm Δτ, Repeat 2: initial screen, 30 μM compound; for 532-nm z-score (based on avg Δτ): robust z-score, hit threshold ±4, 30 μM compound
Protocol: as §1, §2
Hits that exceeded the z-score hit criteria in the donor-only screen were excluded from consideration. To remove compounds with confounding fluorescence properties, a similarity index (SI, specifically the cosine distance, Equation 5) was computed using data from the SUPR instrument by comparing a region (500–540 nm) of the donor-only spectrum (I^(a)) for each well to that of the plate-wide average DMSO spectrum (I^(b)) in the same wavelength band ([29]). Compounds that exceeded an SI robust z-score of 4 were deemed likely fluorescent compounds and removed from consideration.(5) SI=1−∑Ii(a).Ii(b)/∑Ii(a).Ii(a)∑Ii(b).Ii(b)

SMILES	473-nm Δτ, Repeat 1 [1]	473-nm Δτ, Repeat 2 [1]	473-nm z-score (based on avg Δτ) [1]	532-nm Δτ, Repeat 1 (TMR-cC0-C2)	532-nm Δτ, Repeat 2 (TMR-cC0-C2)	532-nm z-score (based on avg Δτ) (TMR-cC0-C2)
CC1(C)S[C@@H]2[C@H](NC(=O)[C@H](N)c3ccccc3)C(=O)N2[C@H]1C(=O)O [Ampicillin sodium]	0.184 ns	0.161 ns	9.70	0.003 ns	0.007 ns	0.34
CC1(C)[C@@H](O[C@H]2O[C@H](C(=O)O)[C@@H](O)[C@H](O)[C@H]2O[C@@H]2O[C@H](C(=O)O)[C@@H](O)[C@H](O)[C@H]2O)CC[C@]2(C)[C@H]3C(=O)C=C4[C@@H]5C[C@@](C)(C(=O)O)CC[C@]5(C)CC[C@@]4(C)[C@]3(C)CC[C@@H]12.N.N [Diammonium glycyrrhizinate]	0.077 ns	0.080 ns	4.42	0.022 ns	0.017 ns	1.22
COc1cc2nc(N3CCN(C(=O)C4COc5ccccc5O4)CC3)nc(N)c2cc1OC (stereo not drawn) [Doxazosin]	-0.266 ns	-0.231 ns	-13.87	0.125 ns	0.126 ns	7.70
CC1=NN(c2ccc(C)c(C)c2)C(=O)/C1=N\Nc1cccc(-c2cccc(C(=O)O)c2)c1O [Eltrombopag olamine]	0.270 ns	0.162 ns	12.13	-0.267 ns	-0.418 ns	-20.87
CCC(=O)c1c(O)cc(O)cc1O [Flopropione]	-0.335 ns	-0.210 ns	-15.21	-0.062 ns	-0.073 ns	-4.10
C[C@H](CCC(=O)O)[C@H]1CC[C@H]2[C@@H]3C[C@H](O)[C@@H]4C[C@H](O)CC[C@]4(C)[C@H]3CC[C@]12C [Hyodeoxycholic acid (HDCA), Hyodeoxycholic acid]	0.111 ns	0.072 ns	5.17	-0.021 ns	-0.120 ns	-4.27
CO[C@@]1(NC(=O)C(C(=O)O)c2ccc(O)cc2)C(=O)N2C(C(=O)O)=C(CSc3nnnn3C)CO[C@@H]21 (stereo partly drawn) [Latamoxef sodium]	0.128 ns	0.049 ns	4.99	-0.050 ns	-0.037 ns	-2.62
O=c1cc(-c2ccc(O)c(O)c2)oc2cc(O)cc(O)c12 [Luteolin]	-0.309 ns	-0.214 ns	-14.58	-0.277 ns	-0.302 ns	-17.63
Cc1ccc(NC(=O)c2ccc(CN3CCN(C)CC3)cc2)cc1Nc1nc(-c2cccnc2)cs1 [Masitinib (AB1010), Masitinib]	-0.336 ns	-0.197 ns	-14.87	-0.071 ns	-0.082 ns	-4.66
O=C(O)c1cc(/N=N/c2ccc(O)c(C(=O)O)c2)ccc1O [Olsalazine Sodium]	0.202 ns	0.096 ns	8.38	-0.057 ns	-0.123 ns	-5.46

Reference: article PMC10692721, “Drug discovery for heart failure targeting myosin-binding protein C” (The Journal of Biological Chemistry, 2023)
